Laboratory results taken from patent EP0723539B1, “TRICYCLIC SULFONAMIDE COMPOUNDS USEFUL FOR INHIBITION OF G-PROTEIN FUNCTION AND FOR TREATMENT OF PROLIFERATIVE DISEASES” (SCHERING CORPORATION, priority 1993, dated 1995).
pIC50: −log10 of the molar value.

Tests used:
[1] = biological target: T1, farnesyl protein transferase (FPT) (Rattus norvegicus, UniProt Q02293+Q04631); assay: In vitro enzyme assay: inhibition of farnesyl protein transferase (transfer of [3H]farnesyl to Ras-CVLS); type: biochemical
T1 construct: partially purified rat brain farnesyl protein transferase (FPT); from tissue; host or cells: rat brain
Text: (§1) Both farnesyl protein transferase (FPT) and geranylgeranyl protein transferase (GGPT) I were partially purified from rat brain by ammonium sulfate fractionation followed by Q-Sepharose (Pharmacia, Inc.) anion exchange chromatography essentially as described by Yokoyama et al (Yokoyama, K., et al., (1991), A protein geranylgeranyltransferase from bovine brain: Implications for protein prenylation specificity, Proc. Natl. Acad. Sci USA 88: 5302-5306, the disclosure of which is incorporated herein by reference thereto). Two forms of val^12-Ha-Ras protein were prepared as substrates for these enzymes, differing in their carboxy terminal sequence. One form terminated in cysteine-valine-leucine-serine (Ras-CVLS) the other in cystein-valine-leucine-leucine (Ras-CVLL). […]
Several methods for measuring farnesyl protein transferase activity have been described (Reiss et al 1990, Cell 62: 81; Schaber et al 1990, J. Biol. Chem. 265: 14701; Manne et al 1990, PNAS 87: 7541; and Barbacid & Manne 1993, U.S. Patent No. 5,185,248). […] Filter mats were washed once with 6% TCA, 2% SDS and radioactivity was measured in a Wallac 1204 Betaplate BS liquid scintillation counter. Percent inhibition was calculated relative to the DMSO vehicle control.

Ras-CVLS processing = assay: Cell-based assay: Ras processing in Ras-transfected COS cells (immunoblot); set-up: species or system monkey; settings: read-out: INHIBITION OF Ras PROCESSING IC50
Experimental: COS monkey kidney cells were transfected by electroporation with the plasmid pSV-SPORT (Gibco/BRL) containing a cDNA insert encoding either Ras-CVLS or Ras-CVLL, leading to transient overexpression of a Ras substrate for either farnesyl protein transferase or geranylgeranyl protein transferase I, respectively (see above).
Following electroporation, cells were plated into 6-well tissue culture dishes containing 1.5 ml of Dulbecco's-modified Eagle's media (GIBCO, Inc.) supplemented with 10% fetal calf serum and the appropriate farnesyl protein transferase inhibitors. After 24 hours, media was removed and fresh media containing the appropriate drugs was re-added. […]
Membranes were blocked by incubation overnight at 4°C in PBS containing 2.5% dried milk and 0.5% Tween-20 and then incubated with a Ras-specific monoclonal antibody, Y13-259 (Furth, M.E., et al., (1982), Monoclonal antibodies to the p21 products of the transforming gene of Harvey murine sarcome virus and of the cellular ras gene family, J. Virol. 43: 294-304), in PBS containing 1% fetal calf serum for one hour at room temperature. […] The presence of processed and unprocessed Ras-CVLS or Ras-CVLL was detected using a colorimetric peroxidase reagent (4-chloro-1-naphthol) as described by the manufacturer (Bio-Rad).

[2] = tested on: T24-BAG4 human bladder carcinoma cells expressing an activated H-ras gene; assay: Cell Mat assay: inhibition of tumor cell growth; type: cell-based
Experimental: (§2) Normal human HEPM fibroblasts were planted in 3.5 cm dishes at a density of 5 x 10^4 cells/dish in 2 ml growth medium, and incubated for 3-5d to achieve confluence. Medium was aspirated from each dish and the indicator tumor cells, T24-BAG4 human bladder carcinoma cells expressing an activated H-ras gene, were planted on top of the fibroblast monolayer at a density of 2 x 10^3cells/dish in 2 ml growth medium, and allowed to attach overnight. Compound-induced colony inhibition was assayed by addition of serial dilutions of compound directly to the growth medium 24 h after tumor cell planting, and incubating cells for an additional 14 d to allow colony formation. Assays were terminated by rinsing monolayers twice with phosphate-buffered saline (PBS), fixing the monolayers with a 1% glutaraldehyde solution in PBS, then visualizing tumor cells by staining with X-Gal (Price, J., et al., Lineage analysis in the vertebrate nervous system by retrovirus-mediated gene transfer, Proc. Natl. Acad. Sci.84, 156-160(1987)). […] The therapeutic index of the compound was quantitatively expressed as the ratio of mIC50/tIC50, with values greater than one indicative of tumor target specificity.

[3] = tested on: Normal human HEPM fibroblasts; assay: Cell Mat assay: inhibition of normal cell growth (cell mat); type: cell-based; settings: Fibroblast, normal cell monolayer
Experimental: as §2

[4] = biological target: T2, geranylgeranyl protein transferase (GGPT) I (Rattus norvegicus, UniProt P53610+Q04631); assay: In vitro enzyme assay: inhibition of geranylgeranyl protein transferase I (Ras-CVLL as acceptor); type: biochemical; settings: Ras-CVLL as isoprenoid acceptor, read-out: inhibits GGPT
T2 construct: geranylgeranyl protein transferase (GGPT) I were partially purified from rat brain; from tissue; host or cells: rat brain
Text: as §1, with “(Ras-CVLL). Ras-CVLS is a substrate for the famesyl protein transferase while Ras-CVLL is a substrate for geranylgeranyl protein transferase I. The cDNAs encoding these proteins were constructed so that the proteins contain an amino-terminal extension of 6 histidine residues. Both proteins were expressed in Escherichia coli and purified using metal chelate affinity chromatography. The radiolabelled isoprenyl pyrophosphate substrates, [3H]farnesyl pyrophosphate and [^3H]geranylgeranyl pyrophosphate, were purchased from DuPont/New England Nuclear.” for “(Ras-CVLL).”

Row | Compound | FPT IC50 ([1]; partially purified rat brain FPT, Ras-CVLS farnesylation) | pIC50 (Ras-CVLS processing) | IC50 ([2]; Homo sapiens, Ras-transformed tumor cells) | IC50 [3] | selective for FPT inhibition ([1]; FPT versus GGPT) | inhibition at 42 µM [4] | antiproliferative activity against Ras-transformed cells (in words) [2]
1 | C=CS(=O)(=O)N1CCC(=C2c3ccc(Cl)cc3CCc3cccnc32)CC1 [Compound 2.9] | 0.01 to 10 µM | 5.00 to 8.00 | 6.3 µM | 25 µM | – | – | –
2 | O=S(=O)(Cc1ccccc1)N1CCC(=C2c3ccc(Cl)cc3CCc3cccnc32)CC1 [Compound 2.12] | – | – | – | – | at least 32 fold | 14% | only weak antiproliferative activity
